Experimental data reported in US6410558B1, “Fungicides for the control of take-all disease of plants” (Monsanto Technology LLC, priority 1991, dated 2002).

Experiments:
[1] = system: Gaeumannomyces graminis var. tritici (Ggt); assay: In vitro Assay: mycelial growth of Ggt on minimal media agar plates containing test compound; assay type: cell-based; conditions: dark, 19-20° C., 4 to 5 days, diameter of mycelial growth; for inhibition at 0.1 ppm / inhibition at 1 ppm / inhibition at 10 ppm: Gaeumannomyces graminis; for inhibition at 0.1 ppm: read-out: In vitro (ppm) 0.1, Percent Inhibition; for inhibition at 1 ppm: read-out: In vitro (ppm) 1, Percent Inhibition; for inhibition at 10 ppm: read-out: In vitro (ppm) 10, Percent Inhibition
Summary of the method: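 Ggt mycelial diameter read after 4 to 5 days in darkness at 19-20° C, from three 4-mm plugs placed on Czapek Dox minimal agar containing test compound delivered in acetone. Inhibition expressed as percent versus untreated plates, plug size (4 mm) subtracted from both.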

[2] = system: Ggt; assay: In vivo Assay: control of Ggt on wheat grown in pots of Ggt-infested soil, root disease rating; parameters: species or system Gaeumannomyces graminis var. tritici; conditions: 0.5 mg active ingredient per pot, 'Bergen' or 'Anza' wheat in Ggt-infested soil, after four weeks, vs untreated control; for pest or weed control at 0.5 mg/pot: Gaeumannomyces graminis, 672 h, read-out: In vivo, percent disease control
Summary of the method: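 Wheat ('Bergen' or 'Anza') seeds in soil infested with Ggt-colonised oats (4% v/v) treated at 0.5 mg active ingredient per pot in acetone/water with Tween 20; five pots per treatment. After four weeks, seminal roots rated 0–5; trimmed mean of three replicates converted to percent disease control versus untreated.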

Compound	inhibition at 0.1 ppm ([1]; 0.1 ppm in minimal media agar) [%]	inhibition at 1 ppm ([1]; 1 ppm in minimal media agar) [%]	inhibition at 10 ppm ([1]; 10 ppm in minimal media agar) [%]	pest or weed control at 0.5 mg/pot [2] [%]	In vitro (ppm) 0.1, Percent Inhibition ([1]; 0.1 ppm in minimal media agar) [%]	In vitro (ppm) 1, Percent Inhibition ([1]; 1 ppm in minimal media agar) [%]	In vitro (ppm) 10, Percent Inhibition ([1]; 10 ppm in minimal media agar) [%]	In vivo, percent disease control [2] [%]
CCNC(=O)c1c(C)cccc1[Si](C)(C)C [Example 48, N-Ethyl-2-methyl-6-(trimethylsilyl)benzamide]	74	100	100	97				
CCN(C(=O)c1ccccc1[Si](C)(C)C)C(OC)C(C)(C)C (stereo not shown) [Example 187, N-Ethyl-N-(1-methoxy-2,2-dimethylpropyl)-2-(trimethylsilyl)benzamide]	13	27	97	24				
CCN(C)C(=O)c1c(Cl)cccc1[Si](C)(C)C [Example 22, 2-Chloro-N-ethyl-N-methyl-6-(trimethylsilyl)benzamide]	13	< 0	46	91				
CCNC(=O)c1c(C)cccc1N(C)C(C)(C)C [Example 191, N-Ethyl-2-[(1,1-dimethylethyl)methylamino]-6-methylbenzamide]	60	88	88	88				
CCCN(CCC)C(=O)c1ccccc1[Si](C)(C)C [Example 13, N,N-Dipropyl-2-(trimethylsilyl)benzamide]	7	17	64	13				
CCN(CC)C(=O)c1c(C)cccc1C(C)(C)C [Example 6, 2-(1,1-Dimethylethyl)-N,N-diethyl-6-methylbenzamide]	7	2	47	37				
CCNC(=O)c1c(Cl)ccc(Cl)c1[Si](C)(C)C [Example 200, 3,6-Dichloro-N-ethyl-2-(trimethylsilyl)benzamide]	92	100	100	65				
CCN(C(=O)c1c(Cl)cccc1[Si](C)(C)C)C(C)C [Example 18, 2-Chloro-N-ethyl-N-(1-methylethyl)-6-(trimethylsilyl)benzamide]	< 0	< 0	100	97				
CCNC(=O)c1c(Cl)ccc(Br)c1[Si](C)(C)C [Example 232, 3-Bromo-6-chloro-N-ethyl-2-(trimethylsilyl)benzamide]	92	97	95	78				
CN(C(=O)c1cccc(F)c1[Si](C)(C)C)C(C)(C)C [Example 5, N-(1,1-Dimethylethyl)-3-fluoro-N-methyl-2-(trimethylsilyl)benzamide]	< 0	< 0	29	24				
CCN(CC)C(=O)c1c(CF)ccc(F)c1[Si](C)(C)C [Example 55, N,N-Diethyl-3-fluoro-6-(fluoromethyl)-2-(trimethylsilyl)benzamide]	49	81	100	100				
CCCNC(=O)c1c(Cl)cccc1[Si](C)(C)C [Example 26, 2-Chloro-N-propyl-6-(trimethylsilyl)benzamide]	95	95	97	99				
CNC(=O)c1c(Cl)cccc1[Si](C)(C)C [Example 19, 2-Chloro-N-methyl-6-(trimethylsilyl)-benzamide]	< 0	7	29	38				
CCNC(=O)c1c([Si](C)(C)C)ccc(CF)c1Cl [Example 228, 2-Chloro-N-ethyl-3-(fluoromethyl)-6-(trimethylsilyl)benzamide]	< 0	87	96	84				
CCNC(=O)c1sc([Si](C)(C)C)cc1[Si](C)(C)C [Example 249, N-Ethyl-3,5-bis(trimethylsilyl)-2-thiophenecarboxamide]	17	48	100	60				
CCN(CC)C(=O)c1c(Cl)cccc1[Si](C)(C)C [Example 39, 2-Chloro-N,N-diethyl-6-(trimethylsilyl)benzamide]	49	82	92	99				

Compound	inhibition at 0.1 ppm ([1]; 0.1 ppm in minimal media agar) [%]	inhibition at 1 ppm ([1]; 1 ppm in minimal media agar) [%]	inhibition at 10 ppm ([1]; 10 ppm in minimal media agar) [%]	pest or weed control at 0.5 mg/pot [2] [%]	In vitro (ppm) 0.1, Percent Inhibition ([1]; 0.1 ppm in minimal media agar) [%]	In vitro (ppm) 1, Percent Inhibition ([1]; 1 ppm in minimal media agar) [%]	In vitro (ppm) 10, Percent Inhibition ([1]; 10 ppm in minimal media agar) [%]	In vivo, percent disease control [2] [%]
CC(C)NC(=O)c1c(Cl)cccc1[Si](C)(C)C [Example 21, 2-Chloro-N-(1-methylethyl)-6-(trimethylsilyl) benzarnide]					100	100	100	100
CCNC(=O)c1c(Cl)cccc1[Si](C)(C)CC [Example 212, 2-Chloro-N-ethyl-6-(ethyldimethylsilyl)benzamide]	77	54	90	96				
CCNC(=O)c1sc(Cl)cc1[Si](C)(C)C [Example 254, 5-Chloro-N-ethyl-3-(trimethylsilyl)-2-thiophenecarboxamide]	97	97	100	40				
CCN(C(=O)OC(C)(C)C)C(=O)c1c(Cl)cccc1[Si](C)(C)C [Example 211, [2-Chloro-6-(trimethylsilyl)benzoyl]ethylcarbamic acid, 1,1-dimethylethyl ester]	< 0	82	90	96				
CCC(C)NC(=O)c1c(Cl)cccc1[Si](C)(C)C (stereo not shown) [Example 28, 2-Chloro-N-(1-methylpropyl)-6-(trimethylsilyl)benzamide]	60	100	100	86				
CCN(CC)C(=O)c1c(Cl)cccc1C[Si](C)(C)C [Example 166, 2-Chloro-N,N-diethyl-6-[(trimethylsilyl)methyl]benzamide]	4	< 0	73	15				
CCNC(=O)c1cc(N)ccc1[Si](C)(C)C [Example 217, 5-Amino-N-ethyl-2-(trimethylsilyl)benzamide]	16	68	100	0				
CCNC(=O)c1cc(Cl)ccc1[Si](C)(C)C [Example 213, 5-Chloro-N-ethyl-2-(trimethylsilyl)benzamide]	9	82	79	87				
CCN(CC)C(=O)c1c(C(F)(F)F)cccc1[Si](C)(C)C [Example 61, N,N-Diethyl-2-(trimethylsilyl)-6-(trifluoromethyl)benzamide]	9	29	49	1				
CCNC(=O)c1c([Si](C)(C)C)ccc(C(F)F)c1Cl [Example 224, 2-Chloro-3-(difluoromethyl)-N-ethyl-6-(trimethylsilyl)benzamide]	< 0	27	93	21				
CCNC(=O)c1c([Si](C)(C)C)ccc(Br)c1Cl [Example 220, 3-Bromo-2-chloro-N-ethyl-6-(trimethylsilyl)benzamide]	75	100	100	97				
CCN(CC)C(=O)c1c([Si](C)(C)C)ccc(C)c1Cl [Example 65, N,N-Diethyl-2-chloro-3-methyl-6-(trimethylsilyl)benzamide]	39	56	100	95				
CC(C)N(O)C(=O)c1c(Cl)cccc1[Si](C)(C)C [Example 167, 2-Chloro-N-hydroxy-N-(1-methylethyl)-6-(trimethylsilyl)benzamide]	46	86	96	93				
CCN(Cc1ccccc1)C(=O)c1c(Cl)cccc1[Si](C)(C)C [Example 35, 2-Chloro-N-ethyl-N-(phenylmethyl)-6-(trimethylsilyl)benzamide]	3	7	93	46				
COc1ccccc1NC(=O)c1c(Cl)cccc1[Si](C)(C)C [Example 159, 2-Chloro-N-(2-methoxyphenyl)-6-(trimethylsilyl)benzamide]	12	55	100	0				
